Assay type in all cases: cell-based
One assay concerns Collagen IV. Kind of assay: Collagen IV mRNA expression by quantitative PCR on normal human fibroblasts. The settings on record: 10 ng/mL (positive control). How it is done:
(§1) This study was carried out by PCR on normal human fibroblasts.
(§2) I. Culturing and Treatment of Fibroblasts: • Normal human fibroblasts are inoculated into a culture medium and then incubated at 37° C. in an atmosphere containing 5% CO2. • Then, the fibroblasts are cultured in the presence or absence of the active substance of example 1 at 0.5% and 1% (V/V).
(§3) TGF-β at 10 ng/mL is used as a positive control. Finally, the fibroblasts are recovered and the total RNAs extracted.
(§4) The RNAs were reverse-transcribed, and the complementary DNAs obtained were analyzed by the quantitative PCR technique. The mRNAs of the RPS18 protein, internal reference control, were analyzed in parallel with the mRNAs of Coll I, Coll III, Coll IV, Coll VII and HAS-2.
(§5) The quantification of the incorporation of fluorescence (SYBR Green) is measured continuously using a thermal cycler. The RQ (relative quantification) analysis is performed using software.

Another assay deals with Collagen III. Kind of assay: Collagen III mRNA expression by quantitative PCR on normal human fibroblasts. To be noted: 10 ng/mL (positive control). How it is done:
as §1, §2, §3, §4, §5

In assay [1] the test system is HAS-2 (hyaluronan synthase 2). Kind of assay: HAS-2 mRNA expression by quantitative PCR on normal human fibroblasts. To be noted: 10 ng/mL (positive control). The protocol:
as §1, §2, §3, §4, §5

A further assay concerns Collagen I. Kind of assay: Collagen I mRNA expression by quantitative PCR on normal human fibroblasts. To be noted: 10 ng/mL (positive control). The protocol: as §1, §2, §3, §4, §5
For the next assay, the system named is Collagen VII. Kind of assay: Collagen VII mRNA expression by quantitative PCR on normal human fibroblasts. To be noted: 10 ng/mL (positive control). The protocol: as §1, §2, §3, §4, §5
A further assay deals with filaggrin. Kind of assay: Filaggrin synthesis by immunostaining on normal human keratinocytes subjected to a dry environment. The protocol:
Thus, the use of an active substance according to the invention makes it possible to restore the epidermal differentiation process in order to obtain a cohesive structure. The second study on the keratinocytes makes it possible to compare the effect of the products of the various examples 1 to 5. To do this, their capacity to restore the synthesis of filaggrin by human keratinocytes subjected to a dry environment is compared. This study was carried out by immunocytology on normal human keratinocytes subjected to a dry environment. The procedure is as follows:
Normal human keratinocytes are seeded and incubated at 37° C. in an atmosphere containing 5% CO2 for several days.
Then, the keratinocytes are either incubated at 37° C. under 5% CO2 in an environment of 40% relative humidity in order to mimic a dry environment, or they are kept in an environment that is saturated with humidity (82% relative humidity) in the presence or absence of the products of examples 1 to 5 or in the presence of a sodium lactate solution at 45 g/L (pH 5.4).
After 24 h, immunostaining is performed using an anti-filaggrin primary antibody and a coupled secondary antibody, Alexa Flor® 488.
The nuclei are stained with a DAPI solution.
Viewing is performed using an IX 70 microscope (Olympus) coupled to an image analysis system (NIS-Elements software, Nikon).
The synthesized filaggrin is proportional to the intensity of green fluorescence present on the keratinocytes. A quantitative analysis of the images was performed using Matlab® software. The results are expressed in arbitrary units (AU) in Table 6 (Effect of the various examples on their ability to restore the synthesis of filaggrin in human keratinocytes subjected to water stress).

Take TGF-β: in the assay on Collagen IV, the “Collagen IV Efficacy/control” value was “+218%” and the “Collagen IV Expression” value was 318%. Also, in the assay with Collagen III, the “Collagen III Efficacy/control” value is listed as “+39%” and the “Collagen III Expression” value worked out at 139%. In assay [1], the “HAS-2 Expression” value is given as 78%. In the assay with Collagen I, the “Collagen I Efficacy/control” value is “+126%” and the “Collagen I Expression” value came out at 226%. Also, in the assay on Collagen VII, the “Collagen VII Efficacy/control” value was “+234%” and the “Collagen VII Expression” value was 334%.

For the compound `CC(O)C(=O)[O-].[Na+]` (stereo not drawn) [Sodium lactate], the “Restoration of filaggrin synthesis (in words)” value in the assay with filaggrin (human keratinocytes subjected to water stress) is “does not restore filaggrin synthesis”. Further, the Synthesis of filaggrin in the assay on filaggrin (keratinocytes, water stress (40% relative humidity), 24 h, product at 0.5%) is listed as 909 AU. Also, in the assay on filaggrin (keratinocytes, water stress, product at 0.5%), the “Ability to restore filaggrin synthesis” value was 7%.

Source of the values: US11452686B2, “Cosmetic active substance obtained through bioconversion by Lactobacillus arizonensis of its original substrate, method for obtaining same composition comprising same, and uses” (SOCIETE INDUSTRIELLE LIMOUSINE D'APPLICATION BIOLOGIQUE, priority 2019, dated 2022).
